Columns and labels:
Assay in all cases: In vitro inhibition, CellTiter-Glo (CTG) assay
Assay type in all cases: cell-based
MDA-MB-231 = test system: MDA-MB-231
Procedure: (§1) Cells were grown in RPMI-1640 supplemented with L-Glutamine and 10% FBS of the following cell lines:
(§2) CCRF-CEM; HL-60; KG-1; CFPAC-1; MiaPACA-2; BxPC-3; HepG2; MDA-MB-231; HCT-116; A498; and NCI-H69
(§3) 18, 96 well plates of each cell line were seeded with the optimized number of cells per well in a total volume of 50 μper well. The plates were left overnight. Plate wells were seeded with 100 pt media for media control. The following day, cells were exposed to test compounds as described below. At the same time as drug exposure, a CTG assay was conducted on the 18th plate for the 0 hr count.
(§4) The compounds were added to cells and medium already on the plate to give desired final concentrations. 50 μL media were added to cell control wells, and 50 μL of mix added to vehicle control wells. 10 μM Doxorubicin was added to appropriate wells as control. Cells exposed to test compound were incubated at 37° C. for 72 hr followed by a CTG assay.
(§5) At the end of the 72 hr exposure period, plates were removed for a CellTiter-Glo (CTG) assay from a 37° C., 5% CO2 incubator and placed on the bench at room temperature for 30 mins. 100 μL of CellTiter-Glo reagent was added and mixed for 2 mins, followed by a further 10 min incubation at room temperature. Luminescence was recorded using Synergy 4.0.

CFPAC-1 = test system: CFPAC-1
Procedure: as §1, §2, §3, §4, §5

A498 = test system: A498
Procedure: as §1, §2, §3, §4, §5

BxPC-3 = test system: BxPC-3
Procedure: as §1, §2, §3, §4, §5

NCI-H69 = test system: NCI-H69
Procedure: as §1, §2, §3, §4, §5

MiaPACA-2 = test system: MiaPACA-2
Procedure: as §1, §2, §3, §4, §5

HCT-116 = test system: HCT-116
Procedure: as §1, §2, §3, §4, §5

HepG2 = test system: HepG2
Procedure: as §1, §2, §3, §4, §5

[1] = Homo sapiens, MDA-MB-231, 72 hr exposure
[2] = Homo sapiens, NCI-H69, 72 hr exposure
[3] = Homo sapiens, CFPAC-1, 72 h, 72 hr exposure
[4] = Homo sapiens, BXPC-3, 72 h, 72 hr exposure
[5] = Homo sapiens, MIA PaCa-2, 72 h, 72 hr exposure
[6] = Homo sapiens, HepG2, 72 h, 72 hr exposure
[7] = Homo sapiens, NCI-H69, 72 h, 72 hr exposure
[8] = Homo sapiens, HCT-116, 72 h, 72 hr exposure
[9] = Homo sapiens, A498, 72 h, 72 hr exposure

| Compound | IC50 (MDA-MB-231; [1]) [µM] | IC50 (CFPAC-1; 72 hr exposure) [µM] | IC50 (A498; 72 hr exposure) [µM] | IC50 (BxPC-3; 72 hr exposure) [µM] | IC50 (MiaPACA-2; 72 hr exposure) [µM] | IC50 (HCT-116; 72 hr exposure) [µM] | IC50 (HepG2; 72 hr exposure) [µM] | IC50 (MDA-MB-231; 72 hr exposure) [µM] | IC50 (CFPAC-1; [3]) [µM] | IC50 (BxPC-3; [4]) [µM] | IC50 (NCI-H69; 72 hr exposure) [µM] | IC50 (MiaPACA-2; [5]) [µM] | IC50 (HepG2; [6]) [µM] | IC50 (NCI-H69; [7]) [µM] | IC50 (HCT-116; [8]) [µM] | IC50 (A498; [9]) [µM] | other results |
| --- | --- | --- | --- | --- | --- | --- | --- | --- | --- | --- | --- | --- | --- | --- | --- | --- | --- |
| CC(C)OC(=O)[C@@H](C)NP1(=O)OC[C@H]2O[C@@H](n3ccc(N)nc3=O)C(F)(F)[C@@H]2O1 (single isomer, unassigned) [101 (diastereomer 1)] | 10 to 100 | < 1 | 1 to 10 | 10 to 100 | < 1 | 1 to 10 | < 1 |  |  |  |  |  |  |  |  |  | IC50 (NCI-H69; [2]): 10 to 100 µM |
| CC(C)OC(=O)[C@@H](C)NP1(=O)OC[C@H]2O[C@@H](n3ccc(N)nc3=O)C(F)(F)[C@@H]2O1 (single isomer, unassigned) [101 (diastereomer 2)] |  |  | 10 to 100 |  |  | 10 to 100 |  | 10 to 100 | 1 to 10 | 10 to 100 | 10 to 100 | 1 to 10 | 1 to 10 |  |  |  |  |
| CC(C)(C)C(=O)SCCOP1(=O)OC[C@H]2O[C@@H](n3ccc(N)nc3=O)C(F)(F)[C@@H]2O1 (single isomer, unassigned) [104 (diastereomer 1)] | 1 to 10 |  | 10 to 100 |  |  |  |  |  | < 1 | < 1 |  | < 1 | < 1 | 1 to 10 | 1 to 10 |  |  |
| CC(C)(C)C(=O)SCCOP1(=O)OC[C@H]2O[C@@H](n3ccc(N)nc3=O)C(F)(F)[C@@H]2O1 (single isomer, unassigned) [104 (diastereomer 2)] |  | < 1 | < 1 | < 1 | < 1 | 1 to 10 | < 1 | 1 to 10 |  |  | 1 to 10 |  |  |  |  |  |  |
| CC(C)C(=O)OC[C@@H](C)NP1(=O)OC[C@H]2O[C@@H](n3ccc(N)nc3=O)C(F)(F)[C@@H]2O1 (single isomer, unassigned) [105 (diastereomer 1)] | 10 to 100 |  | 10 to 100 |  |  | < 1 |  |  | < 1 | < 1 | 1 to 10 | < 1 | < 1 |  |  |  |  |
| CC(C)C(=O)OC[C@@H](C)NP1(=O)OC[C@H]2O[C@@H](n3ccc(N)nc3=O)C(F)(F)[C@@H]2O1 (single isomer, unassigned) [105 (diastereomer 2)] |  | 1 to 10 | 1 to 10 | 1 to 10 | 1 to 10 | 10 to 100 | < 1 | 10 to 100 |  |  | 10 to 100 |  |  |  |  |  |  |
| COC(=O)[C@H](CCCCNP1(=O)OC[C@H]2O[C@@H](n3ccc(N)nc3=O)C(F)(F)[C@@H]2O1)NC(=O)OC(C)(C)C (single isomer, unassigned) [106 (diastereomer 1)] | 10 to 100 |  |  | 10 to 100 |  | 10 to 100 |  |  | 1 to 10 |  |  | 1 to 10 | < 1 | 10 to 100 |  | 10 to 100 |  |
| COC(=O)[C@H](CCCCNP1(=O)OC[C@H]2O[C@@H](n3ccc(N)nc3=O)C(F)(F)[C@@H]2O1)NC(=O)OC(C)(C)C (single isomer, unassigned) [106 (diastereomer 2)] |  | 1 to 10 | 10 to 100 | 1 to 10 | 1 to 10 | 1 to 10 | < 1 | 10 to 100 |  |  | 10 to 100 |  |  |  |  |  |  |
| CC(C)(C)SSCCOP(=O)(NCc1ccccc1)OC[C@H]1O[C@@H](n2ccc(N)nc2=O)C(F)(F)[C@@H]1O (single isomer, unassigned) [111 (diastereomer 1)] | 10 to 100 | 10 to 100 |  | 10 to 100 | 10 to 100 | 10 to 100 | 10 to 100 |  |  |  |  |  |  | 10 to 100 |  | 10 to 100 |  |
| CC(C)(C)SSCCOP(=O)(NCc1ccccc1)OC[C@H]1O[C@@H](n2ccc(N)nc2=O)C(F)(F)[C@@H]1O (single isomer, unassigned) [111 (diastereomer 2)] |  | < 1 | 10 to 100 | 1 to 10 | < 1 | < 1 | < 1 | 10 to 100 |  |  | 10 to 100 |  |  |  |  |  |  |
| CCCC(CCC)C(=O)Nc1ccn([C@@H]2O[C@@H]3COP(=O)(N[C@H](C)C(=O)OC(C)C)O[C@H]3C2(F)F)c(=O)n1 (single isomer, unassigned) [116 (diastereomer 1)] | 10 to 100 |  |  |  |  |  |  |  | 10 to 100 | 10 to 100 |  | 10 to 100 | 10 to 100 | 10 to 100 | 10 to 100 | 10 to 100 |  |
| CCCC(CCC)C(=O)Nc1ccn([C@@H]2O[C@@H]3COP(=O)(N[C@H](C)C(=O)OC(C)C)O[C@H]3C2(F)F)c(=O)n1 (single isomer, unassigned) [116 (diastereomer 2)] |  | 10 to 100 | 10 to 100 | 10 to 100 | 10 to 100 | 10 to 100 | 10 to 100 | 10 to 100 |  |  | 10 to 100 |  |  |  |  |  |  |
| Nc1ccn([C@@H]2O[C@@H]3COP(=O)(O)O[C@H]3C2(F)F)c(=O)n1 [Compound 107, 1-[(4aR,6R,7aR)-7,7-difluoro-2-hydroxy-2-oxo-4,4a,6,7a-tetrahydrofuro[3,2-d][1,3,2]dioxaphosphinin-6-yl]-4-amino-pyrimidin-2-one] | 10 to 100 |  |  |  |  |  |  |  | < 1 | < 1 |  | < 1 | < 1 | 1 to 10 | 1 to 10 | 10 to 100 |  |
| COC(=O)[C@H](CC(C)C)NP(=O)(N[C@@H](CC(C)C)C(=O)OC)OC[C@H]1O[C@@H](n2ccc(N)nc2=O)C(F)(F)[C@@H]1O [Compound 109, Methyl (2S)-2-[[[(2R,3R,5R)-5-(4-amino-2-oxo-pyrimidin-1-yl)-4,4-difluoro-3-hydroxy-tetrahydrofuran-2-yl]methoxy-[[(1S)-1-methoxycarbonyl-3-methyl-butyl]amino]phosphoryl]amino]-4-methyl-pentanoate] | 10 to 100 |  |  |  |  |  |  |  | 1 to 10 | 10 to 100 |  | 10 to 100 | 1 to 10 | 10 to 100 | 10 to 100 | 10 to 100 |  |
| Nc1ccn([C@@H]2O[C@H](COP(=O)(OCc3ccc([N+](=O)[O-])o3)OCc3ccc([N+](=O)[O-])o3)[C@@H](O)C2(F)F)c(=O)n1 [Compound 114, [(2R,3R,5R)-5-(4-amino-2-oxo-pyrimidin-1-yl)-4,4-difluoro-3-hydroxy-tetrahydrofuran-2-yl]methyl bis[(5-nitro-2-furyl)methyl] phosphate] | 10 to 100 |  |  |  |  |  |  |  |  |  |  |  |  |  |  |  | IC50 (CFPAC-1; Homo sapiens, CFPAC-1, 72 hr exposure): < 1 µM; IC50 (A498; Homo sapiens, A498, 72 hr exposure): < 1 µM; IC50 (BxPC-3; Homo sapiens, BXPC-3, 72 hr exposure): < 1 µM; IC50 (NCI-H69; [2]): 10 to 100 µM; IC50 (MiaPACA-2; Homo sapiens, MIA PaCa-2, 72 hr exposure): < 1 µM; IC50 (HCT-116; Homo sapiens, HCT-116, 72 hr exposure): 1 to 10 µM; IC50 (HepG2; Homo sapiens, HepG2, 72 hr exposure): < 1 µM |
| CCOC(=O)[C@H](CC(C)C)NP(=O)(O)OC[C@H]1O[C@@H](n2ccc(N)nc2=O)C(F)(F)[C@@H]1O [Compound 115, [(2R,3R,5R)-5-(4-amino-2-oxo-pyrimidin-1-yl)-4,4-difluoro-3-hydroxy-tetrahydrofuran-2-yl]methoxy-N-[(1S)-1-ethoxycarbonyl-3-methyl-butyl]phosphonamidic acid] | 10 to 100 |  |  |  |  |  |  |  | < 1 | 1 to 10 |  | < 1 | < 1 | 1 to 10 | < 1 | 10 to 100 |  |
| CC(C)(CO)C(=O)SCCOP(=O)(O)OC[C@H]1O[C@@H](n2ccc(N)nc2=O)C(F)(F)[C@@H]1O [Compound 118] | 1 to 10 |  |  |  |  |  |  |  | < 1 | < 1 |  | < 1 | < 1 | < 1 | < 1 | < 1 |  |
| CC(C)OP(=O)(OC[C@H]1O[C@@H](n2ccc(N)nc2=O)C(F)(F)[C@@H]1O)OC(C)C [Compound 119] | 10 to 100 |  |  |  |  |  |  |  | 10 to 100 | 10 to 100 |  | 10 to 100 | 10 to 100 | 10 to 100 | 10 to 100 | 10 to 100 |  |
